Assay results reported in ChEMBL document CHEMBL1126248, “Synthesis and enzymatic activity of some new purine ring system analogues of adenosine 3',5'-cyclic monophosphate” (J Med Chem, 1992).

Key:
[1] = molecular target: cAMP-dependent protein kinase A (Bos taurus) (UniProt P00517+P05131+P31322+P00515)
Description: Activation of cAMP-dependent protein kinase type II

Description for Oryctolagus cuniculus: Activation of cAMP-dependent protein kinase type I

Row | K'a [1] | K'a (Oryctolagus cuniculus) | SMILES
1 | 0.88 | 0.64 | O=P1(O)OC[C@H]2O[C@@H](n3nnc4ccccc43)[C@H](O)[C@@H]2O1 (stereo in doubt; 14)
2 | 0.93 | 0.88 | Nc1cccc2c1nnn2[C@@H]1O[C@@H]2COP(=O)(O)O[C@H]2[C@H]1O
3 | 1.56 | 0.08 | O=[N+]([O-])c1cccc2c1ncn2[C@@H]1O[C@@H]2COP(=O)(O)O[C@H]2[C@H]1O
4 | 0.048 | 0.014 | O=P1(O)OC[C@H]2O[C@@H](n3ncc4ccccc43)[C@H](O)[C@@H]2O1
5 | 0.54 | 0.65 | Nc1cccc2c1cnn2[C@H]1O[C@@H]2COP(=O)(O)O[C@H]2[C@H]1O

The remaining lines, values behind:

Row | SMILES | K'a [1] | K'a (Oryctolagus cuniculus)
6 | O=P1(O)OC[C@H]2O[C@@H](n3nc4ccccc4n3)[C@H](O)[C@@H]2O1 | 3.5 | 0.82
7 | O=[N+]([O-])c1cccc2c1cnn2[C@@H]1O[C@@H]2COP(=O)(O)O[C@H]2[C@H]1O | 2.5 | 1.17
8 | Nc1cccc2c1ncn2[C@@H]1O[C@@H]2COP(=O)(O)O[C@H]2[C@H]1O | 0.67 | 0.2
9 | O=P1(O)OC[C@H]2O[C@@H](n3cc4ccccc4n3)[C@H](O)[C@@H]2O1 | 1.4 | 0.14
10 | O=[N+]([O-])c1cccc2c1nnn2[C@@H]1O[C@@H]2COP(=O)(O)O[C@H]2[C@H]1O | 1 | 0.88
11 | O=P1(O)OC[C@H]2O[C@@H](n3nnc4ccccc43)[C@H](O)[C@@H]2O1 (stereo in doubt) | 0.7 | 0.25
